Read-outs that look alike come from different tables or passages of the source.
Molecular target: T1, Full-length glucokinase (beta cell isoform) (Homo sapiens, UniProt P35557)
T1 construct: Full-length glucokinase (beta cell isoform) was His-tagged at N-terminus; His tag (N); made in house
T1 sequence (P35557 1-465): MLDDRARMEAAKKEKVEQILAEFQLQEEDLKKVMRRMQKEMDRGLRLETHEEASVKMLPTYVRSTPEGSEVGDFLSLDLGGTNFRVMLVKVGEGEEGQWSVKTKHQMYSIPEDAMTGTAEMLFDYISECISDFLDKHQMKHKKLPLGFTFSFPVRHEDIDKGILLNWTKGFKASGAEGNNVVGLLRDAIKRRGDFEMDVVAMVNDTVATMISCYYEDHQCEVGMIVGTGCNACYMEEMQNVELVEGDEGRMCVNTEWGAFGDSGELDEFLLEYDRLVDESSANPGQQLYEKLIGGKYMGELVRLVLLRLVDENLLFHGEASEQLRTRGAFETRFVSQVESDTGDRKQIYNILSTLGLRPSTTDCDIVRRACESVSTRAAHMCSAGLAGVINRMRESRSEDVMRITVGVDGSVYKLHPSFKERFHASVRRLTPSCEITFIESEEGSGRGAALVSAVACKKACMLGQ
Test: Glucokinase biochemical assay (PK/LDH-coupled, NADH depletion at 340 nm): % activation, EC50, % max activation
Conditions: 5 mM glucose; for activation at 10 µM: read-out: % Activation at 10 uM; for EC50: read-out: EC50; for Emax: fitted maximum activation, read-out: % Max Activation
In short: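 N-terminally His-tagged full-length human beta-cell glucokinase, room temperature, 5 mM glucose, 1 mM ATP, PK/LDH-coupled with 0.7 mM NADH, 1% DMSO final. Initial velocity from the 200–900 s slope of A340 decline. % activation = (Va/Vo−1)×100, measured across compound concentrations.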

[1] = 10 uM compound, % Activation=(Va/Vo−1)×100
[2] = compound at 10 uM, 1 mM ATP, room temperature

| Structure (SMILES) | activation at 10 µM [1] [%] | EC50 (GK activation) [nM] | Emax [%] | EC50 (1 mM ATP, room temperature) [nM] | activation at 10 µM [2] [%] | Emax (1 mM ATP) [%] |
| --- | --- | --- | --- | --- | --- | --- |
| Cn1ccc(NC(=O)c2cc(Oc3ccc(S(C)(=O)=O)cc3)c3cc(C(F)F)oc3c2)n1 [Example 322, 2-(Difluoromethyl)-N-(1-methyl-1H-pyrazol-3-yl)-4-[4-(methylsulfonyl)-phenoxy]-1-benzofuran-6-carboxamide] | 161 | 6300 | 235 |  |  |  |
| Cc1cc2c(Oc3ccc(C(=O)N(C)C)c(F)c3)cc(C(=O)Nc3ccn(C)n3)cc2o1 [Example 272, 4-(4-(Dimethylcarbamoyl)-3-fluorophenoxy)-2-methyl-N-(1-methyl-1H-pyrazol-3-yl)benzofuran-6-carboxamide] | 49.6 | 310 | 51 |  |  |  |
| Cn1ncc(NC(=O)c2cc(OC3CN(S(C)(=O)=O)C3)c3c(c2)OC(C)(C)C3)n1 [Example 194, 4-(1-Methanesulfonyl-azetidin-3-yloxy)-2,2-dimethyl-2,3-dihydro-benzofuran-6-carboxylic acid (2-methyl-2H-[1,2,3]triazol-4-yl)-amide] | 146 | 5000 | 263 |  |  |  |
| Cc1ccc(NC(=O)c2cc(Oc3ccc(S(C)(=O)=O)c(F)c3)c3c(c2)OC(C)(CO)C3)nc1 (stereo not drawn) [Example 233, 4-(3-Fluoro-4-methanesulfonyl-phenoxy)-2-hydroxymethyl-2-methyl-2,3-dihydro-benzofuran-6-carboxylic acid (5-methyl-pyridin-2-yl)-amide] | 201 | 64 | 165 |  |  |  |
| Cn1ccc(NC(=O)c2cc(Oc3cccc(C(=O)N4CCC4)c3)c3c(c2)OC(C)(C)C3)n1 [Example 37, 4-[3-(Azetidine-1-carbonyl)-phenoxy]-2,2-dimethyl-2,3-dihydro-benzofuran-6-carboxylic acid(1-methyl-1H-pyrazol-3-yl)-amide] | 107 | 890 | 143 |  |  |  |
| CN(C)C(=O)c1c(F)cc(Oc2cc(C(=O)Nc3ccn(C)n3)cc3c2CC(C)(C)O3)cc1F [Example 111, 4-(4-Dimethylcarbamoyl-3,5-difluoro-phenoxy)-2,2-dimethyl-2,3-dihydro-benzofuran-6-carboxylic acid (1-methyl-1H-pyrazol-3-yl)-amide] | 85.2 | 45 | 115 |  |  |  |
| Cn1ncc(NC(=O)c2cc(Oc3ccc(C#N)c(F)c3)c3c(c2)OC(C)(C)C3)n1 [Example 184, 4-(4-Cyano-3-fluoro-phenoxy)-2,2-dimethyl-2,3-dihydro-benzofuran-6-carboxylic acid (2-methyl-2H-[1,2,3]triazol-4-yl)-amide] | 250 | 3200 | 251 |  |  |  |
| Cc1ccc(NC(=O)c2cc(Oc3ccc(S(C)(=O)=O)cc3)c3oc(C)cc3c2)nc1 [Example 337, 2-Methyl-N-(5-methylpyridin-2-yl)-7-[4-(methylsulfonyl)-phenoxy]-1-benzofuran-5-carboxamide] | 42.6 | 3000 | 89 |  |  |  |
| CN(C)C(=O)c1cc(F)c(Oc2cc(C(=O)Nc3ccn(C)n3)cc3c2CC(C)(C)O3)cc1F [Example 109, 4-(4-Dimethylcarbamoyl-2,5-difluoro-phenoxy)-2,2-dimethyl-2,3-dihydro-benzofuran-6-carboxylic acid (1-methyl-1H-pyrazol-3-yl)-amide] | 86.9 | 280 | 83 |  |  |  |
| Cn1ccc(NC(=O)c2cc(Oc3ccc(S(C)(=O)=O)cc3)c3cc(CO)oc3c2)n1 [Example 317, 2-(Hydroxymethyl)-N-(1-methyl-1H-pyrazol-3-yl)-4-[4-(methylsulfonyl)-phenoxy]-1-benzofuran-6-carboxamide] | 186 | 1700 | 228 |  |  |  |
| Cn1ccc(NC(=O)c2cc(Oc3cc(F)cc(F)c3)c3c(c2)OC(C)(C)C3)n1 [Example 113, 4-(3,5-Difluoro-phenoxy)-2,2-dimethyl-2,3-dihydro-benzofuran-6-carboxylic acid (1-methyl-1H-pyrazol-3-yl)-amide] | 239 | 2600 | 265 |  |  |  |
| Cn1ccc(NC(=O)c2cc(Oc3ccc(S(C)(=O)=O)cc3)c3c(c2)OC(CF)C3)n1 (stereo not drawn) [Example 224, 2-Fluoromethyl-4-(4-methanesulfonyl-phenoxy)-2,3-dihydro-benzofuran-6-carboxylic acid (1-methyl-1H-pyrazol-3-yl)-amide] | 142 | 2300 | 160 |  |  |  |
| CNC(=O)c1ccc(Oc2cc(C(=O)Nc3ccn(C)n3)cc3c2CC(C)(C)O3)cn1 [Example 166, 5-[2,2-Dimethyl-6-(1-methyl-1H-pyrazol-3-ylcarbamoyl)-2,3-dihydro-benzofuran-4-yloxy]-pyridine-2-carboxylic acid methylamide] | 203 | 410 | 212 |  |  |  |
| CN1CCN(C(=O)c2ccc(Oc3cc(C(=O)Nc4ccn(C)n4)cc4c3CC(C)(C)O4)c(F)c2)CC1 [Example 42, 4-[2-Fluoro-4-(4-methyl-piperazine-1-carbonyl)-phenoxy]-2,2-dimethyl-2,3-dihydro-benzofuran-6-carboxylic acid(1-methyl-1H-pyrazol-3-yl)-amide] | 128 | 2300 | 139 |  |  |  |
| CCNC(=O)c1ncc(Oc2cc(C(=O)Nc3ccn(C)n3)cc3c2CC(C)(C)O3)cc1NCC [Example 175, 5-[2,2-Dimethyl-6-(1-methyl-1H-pyrazol-3-ylcarbamoyl)-2,3-dihydro-benzofuran-4-yloxy]-3-ethylamino-pyridine-2-carboxylic acid ethylamide] | 233 | 770 | 251 |  |  |  |

Further lines, results first:

| activation at 10 µM [1] [%] | EC50 (GK activation) [nM] | Emax [%] | EC50 (1 mM ATP, room temperature) [nM] | activation at 10 µM [2] [%] | Emax (1 mM ATP) [%] | Structure (SMILES) |
| --- | --- | --- | --- | --- | --- | --- |
| 59 | 1700 | 69 |  |  |  | CN(C)C(=O)c1ccc(Oc2cc(C(=O)Nc3ccn(C)n3)cc3occc23)cc1F [Example 341, 4-(4-(Dimethylcarbamoyl)-3-fluorophenoxy)-N-(1-methyl-1H-pyrazol-3-yl)benzofuran-6-carboxamide] |
| 211 | 140 | 236 |  |  |  | CN(C)S(=O)(=O)c1ccc(Oc2cc(C(=O)Nc3ccn(C)n3)cc3c2CC(C)(C)O3)cc1F [Example 130, 4-(4-Dimethylsulfamoyl-3-fluoro-phenoxy)-2,2-dimethyl-2,3-dihydro-benzofuran-6-carboxylic acid (1-methyl-1H-pyrazol-3-yl)-amide] |
|  |  |  | 83 | 213 | 202 | Cn1ccc(NC(=O)c2cc(Oc3ccc(C(=O)N4CC(F)C4)nc3)c3c(c2)OC(C)(C)C3)n1 [Example 397, 4-[6-(3-Fluoro-azetidine-1-carbonyl)-pyridin-3-yloxy]-2,2-dimethyl-2,3-dihydro-benzofuran-6-carboxylic acid(1-methyl-1H-pyrazol-3-yl)-amide] |
| 148 | 1300 | 184 |  |  |  | Cc1cc2c(Oc3ccc(S(C)(=O)=O)cc3)cc(C(=O)Nc3ccn(C)n3)cc2o1 [Example 271, 4-(4-(Methylsulfonyl)phenoxy)-2-methyl-N-(1-methyl-1H-pyrazol-3-yl)benzofuran-6-carboxamide] |
| 300 | 190 | 271 |  |  |  | CN(C)S(=O)(=O)c1ccc(Oc2cc(C(=O)Nc3cnn(C)n3)cc3c2CC(C)(C)O3)cc1 [Example 134, 4-(4-Dimethylsulfamoyl-phenoxy)-2,2-dimethyl-2,3-dihydro-benzofuran-6-carboxylic acid (2-methyl-2H-[1,2,3]triazol-4-yl)-amide] |
| 121 | 547 | 118 |  |  |  | Cc1ccc(NC(=O)c2cc(Oc3ccc(S(C)(=O)=O)cc3)c3cc(C(=O)N(C)C)oc3c2)nc1 [Example 285, N2,N2-Dimethyl-N6-(5-methylpyridin-2-yl)-4-(4-(methylsulfonyl)-phenoxy)-benzofuran-2,6-dicarboxamide] |
| 123 | 1300 | 110 |  |  |  | CCOc1ccc(NC(=O)c2cc(Oc3ccc(S(=O)(=O)N4CCC4)cc3)c3cc(C)oc3c2)nc1 [Example 302, 4-(4-(Azetidin-1-ylsulfonyl)phenoxy)-N-(5-ethoxypyridin-2-yl)-2-methyl-benzofuran-6-carboxamide] |
|  |  |  | 290 | 131 | 139 | Cc1ccc(NC(=O)c2cc(Oc3ccc(S(=O)(=O)C4CC4)c(F)c3)c3c(c2)OC(C)(CO)C3)nc1 (single isomer, unassigned; (+)) [Example 401, (+)-4-(4-Cyclopropanesulfonyl-3-fluoro-phenoxy)-2-hydroxymethyl-2-methyl-2,3-dihydro-benzofuran-6-carboxylic acid(5-methyl-pyridin-2-yl)-amide] |
